The target of test [1] is Human immunodeficiency virus type 1 reverse transcriptase (Human immunodeficiency virus 1) (UniProt Q72547).
Description: Inhibitory concentration for 90% inhibition of HIV-1 reverse transcriptase, whole cell based antiviral assay
Test [2] concerns the target Human immunodeficiency virus type 1 reverse transcriptase (Human immunodeficiency virus 1, UniProt Q72547). The experiment in a line: Inhibitory concentration for 50% inhibition of HIV-1 reverse transcriptase.

Each structure is given as a SMILES string.

Take `CC(C)COC(=O)N1c2ccccc2NC(=O)C1(C#CC1CC1)C(F)(F)F` (stereo unspecified): the IC90 in test [1] is 158 nM. In test [2], this molecule displayed a concentration for half-maximal inhibition (IC50) of 1140 nM.
On the same counts, the results for `O=C1Nc2ccc(F)cc2N(CC2CC2)C1(C#CC1CC1)C(F)(F)F` (stereo unspecified) are 23 nM and 263 nM.
In turn, `CCOC(=O)N1c2ccccc2NC(=O)C1(C#CC1CC1)C(F)(F)F` (stereo in doubt; 6m) [listing 1 of 2 here] yielded an IC50 in test [2] of 118 nM.
For the molecule `O=C1Nc2ccccc2N(CC2CC2)C1(C#CC1CC1)C(F)(F)F` (stereo in doubt; 6z) [listing 1 of 2 here], in test [1], it took 11 nM to reach the 90% level (IC90).
`CC[C@H]1C(=O)Nc2ccc(F)cc2N1C(=O)OC(C)C` [OPAVIRALINE] yielded an IC90 in test [1] of 11 nM. Also, the half-inhibitory concentration (IC50) in test [2] was found to be 179 nM.
With `O=C1Nc2ccccc2N(CC2CC2)C1(C#CC1CC1)C(F)(F)F` (stereo in doubt; 6a) [listing 1 of 2 here], in test [1], it took 17 nM to reach the 90% level (IC90).
`O=C1Nc2ccccc2N(CCC2CC2)C1(C#CC1CC1)C(F)(F)F` (stereo unspecified): in test [1], it took 32 nM to reach the 90% level (IC90). For the same molecule, the half-maximal inhibitory concentration (IC50) in test [2] turned out to be 340 nM.
Take `O=C1Nc2ccccc2N(CC2CC2)C1(C#CC1CC1)C(F)(F)F` (stereo in doubt; 6a) [listing 2 of 2 here]: it took 253 nM to reach half-maximal inhibition in test [2] (IC50).
As for `CC(C)OC(=O)N1c2cc(F)ccc2NC(=O)C1(C#CC1CC1)C(F)(F)F` (stereo unspecified), in test [1], the concentration for an effect of 90% (IC90) is 9 nM. Also, the half-inhibitory concentration (IC50) in test [2] worked out at 130 nM.
Take `CCOC(=O)N1c2ccccc2NC(=O)C1(C#CC1CC1)C(F)(F)F` (stereo in doubt) [listing 1 of 2 here]: the IC50 in test [2] came out at 45 nM.
Molecule `CC(C)CN1c2cc(Cl)ccc2NC(=O)C1(C#CC1CC1)C(F)(F)F` (stereo unspecified) displayed an IC90 in test [1] of 52 nM. The same molecule returned a half-maximal inhibitory concentration (IC50) in test [2] of 404 nM.
Turning to `COC(=O)N1c2ccccc2NC(=O)C1(C#CC1CC1)C(F)(F)F` (stereo unspecified), the concentration for an effect of 90% (IC90) in test [1] was determined as 44 nM. This molecule returned a 50% inhibitory concentration (IC50) in test [2] of 504 nM.
Turning to `CC(C)OC(=O)N1c2cc(Cl)ccc2NC(=O)C1(C#CC1CC1)C(F)(F)F` (stereo unspecified), the concentration for an effect of 90% (IC90) in test [1] came out at 19 nM. Also, in test [2], the IC50 turned out to be 160 nM.
Molecule `CCOC(=O)N1c2ccccc2NC(=O)C1(C#CC1CC1)C(F)(F)F` (stereo in doubt) [listing 2 of 2 here] returned a 90% effect concentration (IC90) in test [1] of 4.8 nM.
In test [1], `C=C(C)OC(=O)N1c2cc(Cl)ccc2NC(=O)C1(C#CC1CC1)C(F)(F)F` (stereo unspecified) came in with an IC90 of 15 nM. This molecule displayed an IC50 in test [2] of 315 nM.
The like results for `COc1ccc2c(c1)N(CC1CC1)C(C#CC1CC1)(C(F)(F)F)C(=O)N2` (stereo unspecified) were, in that order, 19 nM and 109 nM.
The like results for `C=CCN1c2ccccc2NC(=O)C1(C#CC1CC1)C(F)(F)F` (stereo unspecified) were, in that order, 22 nM and 601 nM.
The like results for `C=C(C)OC(=O)N1c2cc(F)ccc2NC(=O)C1(C#CC1CC1)C(F)(F)F` (stereo unspecified) were, in that order, 8 nM and 183 nM.
In turn, `CC(C)OC(=O)N1c2ccccc2NC(=O)C1(C#CC1CC1)C(F)(F)F` (stereo unspecified) returned a 90% effect concentration (IC90) in test [1] of 15 nM. For the same molecule, in test [2], the 50% inhibitory concentration (IC50) amounted to 108 nM.
In test [2], `O=C1Nc2ccccc2N(CC2CC2)C1(C#CC1CC1)C(F)(F)F` (stereo in doubt; 6z) [listing 2 of 2 here] showed an IC50 of 127 nM.
In turn, `CC(C)S(=O)(=O)N1c2ccccc2NC(=O)C1(C#CC1CC1)C(F)(F)F` (stereo unspecified) showed a 90% effect concentration (IC90) in test [1] of more than 1000 nM. For the same molecule, the half-inhibitory concentration (IC50) in test [2] is more than 5000 nM.
The like results for `CCS(=O)(=O)N1c2ccccc2NC(=O)C1(C#CC1CC1)C(F)(F)F` (stereo unspecified) were, in that order, more than 1000 nM and more than 5000 nM.
On the same counts, the results for `O=C1Nc2ccccc2N(Cc2ccccc2)C1(C#CC1CC1)C(F)(F)F` (stereo unspecified) are 21 nM and 1820 nM.
The like results for `C=CCN1c2cc(F)ccc2NC(=O)C1(C#CC1CC1)C(F)(F)F` (stereo unspecified) were, in that order, 21 nM and 124 nM.
The molecule `O=C1Nc2ccc(Cl)cc2N(CC2CC2)C1(C#CC1CC1)C(F)(F)F` (stereo unspecified) came in with an IC90 in test [1] of 27 nM. In test [2], this molecule returned a half-inhibitory concentration (IC50) of 329 nM.
On the same counts, the results for `O=C(c1ccccc1)N1c2ccccc2NC(=O)C1(C#CC1CC1)C(F)(F)F` (stereo unspecified) are more than 1000 nM and more than 5000 nM.
The like results for `C=CCN1c2cc(Cl)ccc2NC(=O)C1(C#CC1CC1)C(F)(F)F` (stereo unspecified) were, in that order, 85 nM and 650 nM.
On the same counts, the results for `CCOC(=O)N1c2cc(F)ccc2NC(=O)C1(C#CC1CC1)C(F)(F)F` (stereo unspecified) are 8 nM and 121 nM.
Regarding `C=C(C)OC(=O)N1c2ccccc2NC(=O)C1(C#CC1CC1)C(F)(F)F` (stereo unspecified), the 90% effect concentration (IC90) in test [1] stood at 11 nM. In test [2], this molecule gave a concentration for half-maximal inhibition (IC50) of 169 nM.
For `CCOC(=O)N1c2ccccc2NC(=O)C1(C#CC1CC1)C(F)(F)F` (stereo in doubt; 6m) [listing 2 of 2 here], the 90% effect level in test [1] (IC90) was put at 9 nM.
Regarding `CCOC(=O)N1c2cc(Cl)ccc2NC(=O)C1(C#CC1CC1)C(F)(F)F` (stereo unspecified), in test [1], the IC90 was determined as 11 nM. The molecule also yielded a 50% inhibitory concentration (IC50) in test [2] of 127 nM.
On the same counts, the results for `C=CCN1c2cc(OC)ccc2NC(=O)C1(C#CC1CC1)C(F)(F)F` (stereo unspecified) are 29 nM and 123 nM.
The like results for `C#CCN1c2ccccc2NC(=O)C1(C#CC1CC1)C(F)(F)F` (stereo unspecified) were, in that order, 53 nM and 1810 nM.
The like results for `CCCCOC(=O)N1c2ccccc2NC(=O)C1(C#CC1CC1)C(F)(F)F` (stereo unspecified) were, in that order, 105 nM and 672 nM.
Consider `CC(C)C(I)N1c2ccccc2NC(=O)C1(C#CC1CC1)C(F)(F)F` (stereo unspecified), for which the IC90 in test [1] was determined as 19 nM. For the same molecule, half-maximal inhibition in test [2] (IC50) required 160 nM.
`C=CCOC(=O)N1c2ccccc2NC(=O)C1(C#CC1CC1)C(F)(F)F` (stereo unspecified): in test [1], the IC90 came out at 30 nM. In test [2], the IC50 turned out to be 147 nM.
The molecule `CCCS(=O)(=O)N1c2ccccc2NC(=O)C1(C#CC1CC1)C(F)(F)F` (stereo unspecified) gave a concentration for an effect of 90% (IC90) in test [1] of more than 1000 nM. The molecule further showed an IC50 in test [2] of more than 5000 nM.

In general, IC90 refers to the concentration needed for an effect of 90%. For orientation: IC50 means the midpoint of a concentration-inhibition curve. A low value points to inhibition by little substance.

(Values after ChEMBL document CHEMBL1133258, “Synthesis and evaluation of quinoxalinones as HIV-1 reverse transcriptase inhibitors” (Bioorg Med Chem Lett, 2000).)
